These results are taken from patent US20090163451A1, “METHODS FOR TREATING VISCERAL PAIN” (priority 2007, published 2009).

Entries after “also recorded” stand apart in the source; their conditions may differ. Bounds are passed on as bounds.

In assay [1] the test system is rats with experimental pancreatitis (DBTC), referred abdominal hypersensitivity. Nature of the assay: experimental pancreatitis model (IV DBTC): referred abdominal hypersensitivity, withdrawals to von Frey filament. The format is in vivo, Sprague Dawley rats. As for the experimental part:
(§1) Adult male Sprague Dawley rats (Harlan, Indianapolis, Ind.), weighing 150-200 g, were maintained in a climate-controlled room with ad lib food and water on a 12 hour/12 hour light/dark cycle (lights on at 07:00 hours). All procedures followed the policies of the International Association for the Study of Pain and the NIH guidelines for the handling and use of laboratory animals. Studies were approved by the University of Arizona IACUC.
(§2) Dibutyltin dichloride (DBTC) was obtained from Sigma-Aldrich (Milwaukee, Wis.) and dissolved in 100% ethanol to a concentration of 8 mg/kg (Sparmann et al., Gastroenterology. 112:1664-1672 (1997))). Sumatriptan succinate was obtained from Toronto Research Chemicals (ON, Canada) and dissolved in saline to 1, 3, and 10 μg for RVM microinjections and 100, 200, and 300 μg/kg for systemic injections (Kayser et al., Br J Pharmacol. 137:1287-1297 (2002)). The 5HT1B antagonist isamoltane and the 5HT1D antagonist BRL15722 were obtained from Tocris (Elllisville, Mo.). Isamoltane was dissolved in saline to a concentration of 3 μg for RVM microinjection and to a concentration of 4 mg/kg (Ottani et al., Eur J Pharmacol. 497:181-186 (2004)) for system application. BRL15722 was dissolved in 10% DMSO to a concentration of 3 μg for RVM microinjection and to a concentration of 0.3 mg/kg (Ottani et al., Eur J Pharmacol. 497:181-186 (2004)) for systemic application.
For the experiments involving microinjection of drugs into the RVM, rats underwent surgeries to implant RVM cannulae. After five days of recovery, rats received either intravenous injection of DBTC to induce pancreatitis, or intracolonic injection of sodium butyrate to induce colonic hypersensitivity. Animals were monitored for development of visceral hypersensitivity on the subsequent days. On day six after either induction of pancreatitis or colonic hypersensitivity, animals underwent baseline behavioral measurements. […] For experiments investigating the effects of serotonin antagonists, the drugs were microinjected concurrently with injection of sumatriptan and animals were monitored for the subsequent two h. Separate groups of animals were microinjected with the antagonists alone to control for possible effects of the drugs by themselves.
For the experiments involving systemic drug administration, rats received intravenous injection of DBTC to induce pancreatitis or intracolonic injection of sodium butyrate to induce colonic hypersensitivity. On day six after either induction of pancreatitis of colonic hypersensitivity, animals underwent baseline behavioral measurements. […] Separate groups of animals were injected with the antagonists alone. Additionally, separate groups of animals were injected with sumatriptan systemically and microinjected with the antagonists in the RVM to determine if the RVM is a site of action for systemically applied sumatriptan. The microinjection of antagonists into the RVM was done immediately following the systemic injection of sumatriptan. All animals were tested for behavioral signs of hypersensitivity every 20 min for two h after the end of the injections.
Pancreatitis was produced by a tail vein injection of dibutyltin dichloride (DBTC, Aldrich, Milwaukee, Wis., 0.25 cc) dissolved in 100% ethanol at a dose of 8 mg/kg under isofluorane anesthesia (2-3 liters/min, 4.0%/vol until anesthetized, then 2.5%/vol throughout the procedure; Vera-Portocarrero et al., Gastroenterology. 130:2155-2164 (2006)). Control animals were injected with the vehicle solution only (100% ethanol, 0.25 mL).
Referred abdominal hypersensitivity in the pancreatitis model was quantified by measuring the number of withdrawal events evoked by application of a calibrated von Frey filament (determined by either abdominal withdrawal, licking of the abdominal area, or whole body withdrawal). Rats were placed inside Plexiglas boxes on an elevated fine fiberglass screen mesh and acclimated for 30 minutes before testing. […]

Assay [2] concerns rats with experimental colonic hypersensitivity (butyrate), referred lumbar hypersensitivity. Nature of the assay: colonic hypersensitivity model (intracolonic sodium butyrate): referred lumbar hypersensitivity, von Frey mechanical threshold. The format is in vivo, Sprague Dawley rats. The following applies: for behavior of rats previously injected with intracolonic vehicle: control rats. As for the experimental part:
as §1, §2
For the experiments involving microinjection of drugs into the RVM, rats underwent surgeries to implant RVM cannulae. After five days of recovery, rats received either intravenous injection of DBTC to induce pancreatitis, or intracolonic injection of sodium butyrate to induce colonic hypersensitivity. Animals were monitored for development of visceral hypersensitivity on the subsequent days. On day six after either induction of pancreatitis or colonic hypersensitivity, animals underwent baseline behavioral measurements. Sumatriptan was microinjected into the RVM at different doses (separate groups of rats for each dose) and animals were monitored behaviorally for two h after sumatriptan application in the RVM. For experiments investigating the effects of serotonin antagonists, the drugs were microinjected concurrently with injection of sumatriptan and animals were monitored for the subsequent two h. Separate groups of animals were microinjected with the antagonists alone to control for possible effects of the drugs by themselves.
For the experiments involving systemic drug administration, rats received intravenous injection of DBTC to induce pancreatitis or intracolonic injection of sodium butyrate to induce colonic hypersensitivity. On day six after either induction of pancreatitis of colonic hypersensitivity, animals underwent baseline behavioral measurements. Sumatriptan was injected intraperitoneally at different doses (separate groups of rats for each dose) and the animals were monitored behaviorally every 20 min for two h after injection. For experiments investigating the effects of serotonin antagonists, the drugs were injected intraperitoneally immediately following the injection of sumatriptan (separate groups for each respective antagonist). Separate groups of animals were injected with the antagonists alone. Additionally, separate groups of animals were injected with sumatriptan systemically and microinjected with the antagonists in the RVM to determine if the RVM is a site of action for systemically applied sumatriptan. The microinjection of antagonists into the RVM was done immediately following the systemic injection of sumatriptan. All animals were tested for behavioral signs of hypersensitivity every 20 min for two h after the end of the injections.
Colonic hypersensitivity was induced by enemas of a sodium butyrate solution ([…]) twice daily for 3 days (Bourdu et al., Gastroenterology. 128:1996-2008 (2005)). […]

The next assay addresses β-2 adrenergic receptors (Homo sapiens, UniProt P07550). The following applies: reported; cited from earlier work.
The subject of assay [3] is rats with experimental colonic hypersensitivity (butyrate), referred lumbar hypersensitivity. Description: colonic hypersensitivity model (intracolonic sodium butyrate): referred lumbar hypersensitivity, von Frey mechanical threshold. The format is in vivo, Sprague Dawley rats. The following applies: 10 μg IV, up to 120 minutes postinjection, data not shown.
The test system of assay [4] is thermal hypersensitivity induced by intraplantar injection of carrageenan. The following applies: injected systemically at similar doses used in the present study (Bingham et al.); cited from earlier work.
Assay [5] deals with capsaicin-induced hyperemia in the sciatic nerve. The following applies: Zochodne and Ho; cited from earlier work.
In assay [6] the test system is evoked release of calcitonin gene-related peptide from the rat isolated spinal cord. The following applies: rat isolated spinal cord (Arvieu et al.); cited from earlier work.
Assay [7] concerns acetic acid-induced abdominal writhing in mice. The following applies: mice (Ghelardini et al.; Jain et al.); cited from earlier work.
The mark [8] stands for this setting: RVM microinjection, butyrate rats.

Chain of β-2 adrenergic receptors (P07550 whole entry): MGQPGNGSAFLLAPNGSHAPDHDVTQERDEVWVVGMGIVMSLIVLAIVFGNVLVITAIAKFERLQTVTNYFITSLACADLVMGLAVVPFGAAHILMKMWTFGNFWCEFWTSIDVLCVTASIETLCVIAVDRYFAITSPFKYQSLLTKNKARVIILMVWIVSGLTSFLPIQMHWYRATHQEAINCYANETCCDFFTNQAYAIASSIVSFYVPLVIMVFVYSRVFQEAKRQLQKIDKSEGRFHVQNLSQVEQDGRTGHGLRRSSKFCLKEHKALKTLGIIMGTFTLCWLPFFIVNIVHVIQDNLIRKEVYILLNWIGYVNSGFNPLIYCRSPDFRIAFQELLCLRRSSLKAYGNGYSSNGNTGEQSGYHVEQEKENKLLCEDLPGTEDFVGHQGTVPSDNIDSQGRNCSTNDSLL

Turning to `CC(C)NCC(O)COc1ccccc1-n1cccc1` (stereo not drawn) [isamoltane], the “effect of concurrent RVM antagonist on the effect of RVM sumatriptan” value in assay [1] (sumatriptan 10 μg RVM, antagonist 3 μg RVM, DBTC rats) is “blocked the effect of sumatriptan”; in assay [2] (sumatriptan 10 μg RVM, antagonist 3 μg RVM, butyrate rats), “blocked the effects of sumatriptan; also recorded: blocked the effect of RVM sumatriptan”. Moreover, the “effect of RVM antagonist on the effect of systemic sumatriptan” value in assay [1] (sumatriptan 300 μg/kg IP, antagonist 3 μg RVM, DBTC rats) is “failed to antagonize the effects of systemic sumatriptan; also recorded: did not modify the effect of systemic sumatriptan”; in assay [2] (sumatriptan 300 μg/kg IP, antagonist 3 μg RVM, butyrate rats), “failed to antagonize the effects of systemic sumatriptan; also recorded: did not modify the effect of systemic sumatriptan”. The “effect of concurrent systemic (IP) antagonist on the effect of systemic sumatriptan” value in assay [1] (sumatriptan 300 μg/kg IP, isamoltane 4 mg/kg IP or BRL15722 0.3 mg/kg IP, DBTC rats) was “reduced the effects of sumatriptan; also recorded: blocked the effects of sumatriptan”; in assay [2] (sumatriptan 300 μg/kg IP, isamoltane 4 mg/kg IP or BRL15722 0.3 mg/kg IP, butyrate rats), “reduced the effects of sumatriptan; also recorded: blocked the effect of systemic sumatriptan”. The “activity at β-2 adrenergic receptors” value on β-2 adrenergic receptors is “reported to have activity at β-2 adrenergic receptors”.
Consider `CNS(=O)(=O)Cc1ccc2[nH]cc(CCN(C)C)c2c1` [sumatriptan], for which the “frequency of abdominal withdrawals after IV sumatriptan” value in assay [1] (10 μg IV, DBTC rats, up to 120 minutes postinjection, data not shown) is “not altered”. The “frequency of withdrawals in DBTC-injected rats” value in assay [1] (IP sumatriptan 100, 200, 300 μg/kg, day 6 after DBTC) is “reduced abdominal withdrawals in pancreatic rats in a dose-dependent manner; also recorded: reduced the frequency of withdrawals in DBTC-injected rats in a time- and dose-dependent manner”. Further, in assay [1] (IP sumatriptan, rats without pancreatitis), the “responses to abdominal stimulation in vehicle-injected control rats” value is given as “did not alter responses to abdominal stimulation”. In addition, in assay [1] (IP, DBTC rats), the “time for which systemic sumatriptan was active postinjection” value is “up to 100 minutes”, the “time of peak effect” value is 40 min, the “time point at which the effect dissipated” value turned out to be 120 min and the “time to attenuation of withdrawals after administration” value is listed as no more than 20 min. Also, the “A50 dose (and 95% confidence interval) for IP sumatriptan” value in assay [1] (IP, day 6 after IV DBTC, frequency of abdominal withdrawals, A50 = dose producing a 50% response) is given as 172.4 (124.5-386.7) μg/kg. The “frequency of withdrawals after RVM administration” value in assay [1] (RVM microinjection 1, 3, 10 μg, DBTC rats) is on record as “reduced the number of withdrawals in a dose-dependent manner; also recorded: attenuated the increased frequency of withdrawals”. Moreover, in assay [1] (RVM microinjection, DBTC rats), the “time by which the effects of RVM sumatriptan dissipated” value was no more than 100 min, the “time for which the effects of RVM sumatriptan endured” value is given as “approximately 60 minutes”, the “time of peak effect” value is given as 40 min and the “time to attenuation of withdrawals after administration” value is no more than 20 min. For the same molecule, the “responses to abdominal stimulation in vehicle-injected rats” value in assay [1] (RVM microinjection, rats without pancreatitis) is on record as “did not alter responses to abdominal stimulation”. The “A50 dose (and 95% CI) for RVM sumatriptan” value in assay [1] (microinjection into the RVM, DBTC rats, frequency of withdrawals) is recorded as 4.3 (3.1-16.2) μg. Also, in assay [1] (sumatriptan 10 μg into the RVM, DBTC rats, v. RVM saline), the “frequency of withdrawals, single RVM dose” value was “attenuated the frequency of withdrawals; also recorded: reduced the frequency of withdrawals”. Also, the “frequency of withdrawals, single dose of systemic sumatriptan” value in assay [1] (sumatriptan 300 μg/kg IP, DBTC rats, v. saline) is given as “attenuated the frequency of withdrawals; also recorded: reduced the frequency of withdrawals”. In addition, the “mechanical threshold of rats injected with sodium butyrate” value in assay [2] (IP sumatriptan 100, 200, 300 μg/kg) was “restored tactile thresholds of butyrate-treated rats in a dose dependent manner; also recorded: increased the mechanical threshold of rats injected with sodium butyrate in a time- and dose-dependent manner”. In assay [2] (IP sumatriptan), the “behavior of rats previously injected with intracolonic vehicle” value is reported as “did not modify the behavior”. Besides, in assay [2] (IP, butyrate rats), the “time for which systemic sumatriptan was active postinjection” value stood at 60 min, the “time of peak effect” value stood at 40 min, the “time point by which the effect dissipated” value is given as “up to 100 minute” and the “time to reversal of reduced mechanical threshold after administration” value is listed as no more than 20 min. Further, the “A50 (and 95% CI) dose for IP sumatriptan” value in assay [2] (IP, butyrate rats, lumbar mechanical threshold) is listed as 232.6 (182.2-322.8) μg/kg. In addition, the “lumbar hypersensitivity / lumbar dermatome mechanical threshold after RVM administration” value in assay [2] (RVM microinjection 1, 3, 10 μg, butyrate rats) is “restored tactile thresholds of butyrate-treated rats in a dose dependent manner; also recorded: time- and dose-dependent attenuation of lumbar hypersensitivity”. In addition, in assay [2] (setting [8]), the “time by which the effects of RVM sumatriptan dissipated” value was no more than 100 min, the “time for which the effects of RVM sumatriptan endured” value is given as “approximately 60 minutes”, the “time of peak effect” value turned out to be 40 min and the “time to reversal of reduced mechanical threshold after administration” value was no more than 20 min. For the same molecule, the “behavior of rats previously injected with intracolonic vehicle” value in assay [2] (RVM microinjection) is “did not modify the behavior”. In addition, the “A50 (and 95% CI) dose for RVM sumatriptan” value in assay [2] (microinjection into the RVM, butyrate rats, lumbar mechanical threshold) was 3.2 (2.0-12.5) μg. For the same molecule, in assay [2] (sumatriptan 10 μg into the RVM, butyrate rats, v. RVM saline), the “mechanical threshold, single RVM dose” value is “increased the mechanical threshold”. Besides, the “mechanical threshold, single dose of systemic sumatriptan” value in assay [2] (sumatriptan 300 μg/kg IP, butyrate rats, v. saline) is “increased the mechanical threshold”. Moreover, the “reduced lumbar mechanical threshold after IV sumatriptan” value in assay [3] is given as “did not reverse the reduction in threshold”. For the same molecule, the “thermal hypersensitivity induced by intraplantar carrageenan” value in assay [4] is listed as “attenuated”. For the same molecule, the “capsaicin-induced hyperemia in the sciatic nerve” value in assay [5] was “inhibits capsaicin-induced hyperemia”. Further, the “evoked release of calcitonin gene-related peptide” value in assay [6] was “inhibits”. Also, the “antinociceptive efficacy in acetic acid-induced abdominal writhing” value in assay [7] is given as “has antinociceptive efficacy”.
